The source made the active and inactive calls. No cut-off for these calls is given here.
Experiments:
[1] = molecular target: T1, Protein cereblon/Androgen receptor (Homo sapiens) (UniProt P10275+Q96SW2); experiment: PROTAC activity at CRBN/AR in human LNCaP cells assessed as induction of AR degradation by measuring downregulation of AR protein expression at 30 uM measured after 24 hrs by western blot assay; assay type: cell-based
[2] = molecular target: T1, Protein cereblon/Androgen receptor (Homo sapiens); experiment: PROTAC activity at CRBN/AR in human LNCaP cells assessed as induction of AR degradation by measuring downregulation of AR protein expression measured after 24 hrs by western blot assay; assay type: cell-based; settings: dose 10-30 µM
[3] = Drug uptake in AR-negative human PC-3 cells assessed as increase in fluorescence intensity at 10 uM incubated for 24 hrs by DAPI staining based confocal laser scanning microscopy; assay type: ADME, cell-based; settings: pc-3, 24 h
[4] = Drug uptake in AR-positive human LNCaP cells assessed as increase in fluorescence intensity at 10 uM incubated for 24 hrs by DAPI staining based confocal laser scanning microscopy; assay type: ADME

T1 sequence (P10275 whole entry, looked up): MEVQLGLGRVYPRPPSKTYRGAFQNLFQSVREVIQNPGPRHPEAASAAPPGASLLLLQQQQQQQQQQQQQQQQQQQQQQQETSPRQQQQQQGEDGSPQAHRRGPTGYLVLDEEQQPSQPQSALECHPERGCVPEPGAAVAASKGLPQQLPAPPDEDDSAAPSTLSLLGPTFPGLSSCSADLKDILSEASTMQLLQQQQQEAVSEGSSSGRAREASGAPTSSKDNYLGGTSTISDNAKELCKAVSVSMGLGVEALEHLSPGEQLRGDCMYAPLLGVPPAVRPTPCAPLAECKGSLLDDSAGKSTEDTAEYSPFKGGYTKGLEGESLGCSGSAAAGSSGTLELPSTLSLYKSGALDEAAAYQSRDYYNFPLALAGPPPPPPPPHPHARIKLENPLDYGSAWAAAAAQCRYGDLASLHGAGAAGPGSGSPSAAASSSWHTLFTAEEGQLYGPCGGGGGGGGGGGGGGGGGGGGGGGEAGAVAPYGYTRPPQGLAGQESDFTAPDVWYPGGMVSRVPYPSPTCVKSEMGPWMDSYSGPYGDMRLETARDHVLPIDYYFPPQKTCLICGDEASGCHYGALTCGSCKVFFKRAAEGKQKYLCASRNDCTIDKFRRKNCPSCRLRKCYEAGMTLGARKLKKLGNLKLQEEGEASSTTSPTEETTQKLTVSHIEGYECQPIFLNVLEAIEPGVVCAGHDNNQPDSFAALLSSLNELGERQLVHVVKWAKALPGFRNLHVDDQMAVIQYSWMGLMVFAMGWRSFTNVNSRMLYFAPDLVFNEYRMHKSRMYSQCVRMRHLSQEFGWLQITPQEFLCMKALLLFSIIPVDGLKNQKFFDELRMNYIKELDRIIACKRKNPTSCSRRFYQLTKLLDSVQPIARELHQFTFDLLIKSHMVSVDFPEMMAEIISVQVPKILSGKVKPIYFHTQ
T1 sequence (Q96SW2 whole entry, looked up): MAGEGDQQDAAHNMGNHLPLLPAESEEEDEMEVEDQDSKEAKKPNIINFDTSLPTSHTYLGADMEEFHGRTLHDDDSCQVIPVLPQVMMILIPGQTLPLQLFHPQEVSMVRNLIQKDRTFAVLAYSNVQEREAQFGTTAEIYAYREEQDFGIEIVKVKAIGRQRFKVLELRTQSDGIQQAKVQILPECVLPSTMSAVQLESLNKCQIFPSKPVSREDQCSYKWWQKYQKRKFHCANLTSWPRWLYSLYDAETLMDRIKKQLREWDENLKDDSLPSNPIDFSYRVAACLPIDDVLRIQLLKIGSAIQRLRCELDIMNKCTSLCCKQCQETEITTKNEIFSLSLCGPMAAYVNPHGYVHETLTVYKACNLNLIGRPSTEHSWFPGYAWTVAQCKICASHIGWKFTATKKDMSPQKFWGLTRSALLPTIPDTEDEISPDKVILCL

Activity [1]	Activity [2]	Drug uptake [3]	Drug uptake [4]	SMILES
Active	Dose-Dependent Effect	–	–	CC1(C)C(=O)N(c2ccc(C#N)c(C(F)(F)F)c2)C(=S)N1CCCn1cc(COCCOCCOc2cccc3c2C(=O)N(C2CCC(=O)NC2=O)C3=O)nn1 (centres undefined)
–	–	Active	Active	Nc1cccc2c1C(=O)N(C1CCC(=O)NC1=O)C2=O (centres undefined) [POMALIDOMIDE]

From ChEMBL document CHEMBL4834485, “Designed, synthesized and biological evaluation of proteolysis targeting chimeras (PROTACs) as AR degraders for prostate cancer treatment” (Bioorg Med Chem, 2021)
